Measured values published in patent US6403632B1, “Lactam metalloprotease inhibitors” (priority 2000, dated 2002).

Tested on: cartilage degradation
Assay: Acute Cartilage Degradation Rat Model
Assay type: in vivo
Conditions: rats
Text: Acute Cartilage Degradation Rat Model A novel in vivo model of acute cartilage degradation in rats has been characterized as a method to determine the proteoglycan content in the synovial fluid after the induction of cartilage degradation.

Compound: COc1ccc2c(c1)c(CC(=O)O)c(C)n2C(=O)c1ccc(Cl)cc1 [Indomethacin]
- inhibition of cartilage degradation, as measured by increased proteoglycan content in the synovial fluid: inactive
